The values that follow come from patent US12077501B2, “Compounds and compositions for intracellular delivery of agents” (ModernaTX, Inc., priority 2017, dated 2024).

By pKa is commonly meant the negative logarithm of the acid dissociation constant.

A short description of series [1]: Encapsulation efficiency of RNA (QUANT-IT RIBOGREEN RNA assay). The series is classed as physicochemical. As to conditions: Table 1c; nanoparticle compositions. The method, boiled down: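 Samples diluted to about 5 μg/mL RNA in TE buffer pH 7.5, treated with buffer or 2% Triton X-100 for 15 min at 37° C, then stained with RiboGreen (1:100). Fluorescence at about 480/520 nm, blank-subtracted; free RNA fraction is intact over Triton-disrupted signal.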

Series [2] has as its system hEPO expression. As to the kind of experiment: hEPO expression in CD-1 mice compared with MC3. Type of series: in vivo. As to conditions: intravenous, 0.5 mpk, Table 7e. An excerpt:
In contrast, hEPO expression in rats induced by administration of a nanoparticle composition including a compound according to one of formulae (I), (Ia1)-(Ia6), (Ib), (II), (IIa), (III), and (IIIa) was substantially […] than that measured for MC3. […] Tables 7c and 7d show additional protein expressions and clearance data from compositions with various compounds disclosed herein as compared to with MC3. Tables 7e, 7f and 7g show hEPO expression data in CD-1 mice at a dose of 0.5 mpk.

Series [3] in a line: Lipid clearance: % dose remaining in liver of CD-1 mice. Type of series: in vivo. As to conditions: intravenous, 0.5 mg/kg, CD-1 mouse, Table 8a. The essentials: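 Nanoparticle compositions of the disclosed lipids given intravenously and benchmarked against MC3. Protein expression reported as AUC (p/s*h) and clearance as % dose remaining in liver of CD-1 mice; hEPO expression in CD-1 mice measured at 0.5 mpk.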

Series [4] in a line: pKa of nanoparticle compositions. The series is classed as physicochemical. As to conditions: Table 1c.
The nature of series [5]: Lipid purity change after storage in EtOH for 96 h at 25 or 37 °C. The series is classed as physicochemical. Here is the method: Nanoparticle compositions including a therapeutic and/or prophylactic agent can be optimized according to the selection of a compound according to one of formulae (I), (Ia1)-(Ia10), (Ib), (Ic), (Id), (Id1)-(Id10), (Ie), (Ie1)-(Ie6), (II), (IIa), (III), and (IIIa), the selection of additional lipids, the amount of each lipid in the lipid component, and the wt:wt ratio of the lipid component to the therapeutic and/or prophylactic agent, as described herein. Initial studies were performed to compare the delivery efficiency of nanoparticle compositions including various compounds according to one of formulae (I), (Ia1)-(Ia10), (Ib), (Ic), (Id), (Id1)-(Id10), (Ie), (Ie1)-(Ie6), (II), (IIa), (III), and (IIIa). The cationic lipid MC3 is a current standard in the art. Also determined was the stability of nanoparticles of the disclosure, i.e., the purity after storage in EtOH for 96h at 25° C. or 37° C. (Table Id).

The nature of series [6]: Particle size and polydispersity index of nanoparticle compositions (Zetasizer Nano ZS). Type of series: physicochemical. As to conditions: Table 1c; nanoparticle compositions. Here is the method: A Zetasizer Nano ZS (Malvem Instruments Ltd, Malvem, Worcestershire, UK) can be used to determine the particle size, the polydispersity index (PDI) and the zeta potential of the nanoparticle compositions in 1×PBS in determining particle size and 15 mM PBS in determining zeta potential.

With `CCCCCCCCCCCCCCN(CCCOC(=O)CCCCCCCCC)CC(=O)N1CCN(C(=O)CN(CCCCCCCCC)CCN(CCCCCCCCC)CCCCCCCCC)CC1` [Compound 89, 3-((2-(4-(N-(2-(Dinonylamino)ethyl)-N-nonylglycyl)piperazin-1-yl)-2-oxoethyl)(tetradecyl)amino)propyl decanoate], the “EE (%)” value in series [1] was 97.6%. For the same compound, in series [2], the “AUC (p/s*h) CD-1 mice 0.5 mpk” value is recorded as 1.36E+08 p/s*h. Moreover, the “% Dose Remaining 24 hr” value in series [3] is listed as 0.05%. For the same compound, the pKa in series [4] is listed as 6.94. In series [5], the “Lipid % change purity in EtOH, 25° C., 96 h” value was 2.3% and the “Lipid % change purity in EtOH, 37° C., 96 h” value is 3.9%. Also, in series [6], the PDI stood at 0.20 and the “Size (nm)” value is given as 80.1 nm.
In the case of `CCCCCCCCCCCCCCN(CCCCCCCC(=O)OCCCCC)CC(=O)N1CCN(C(=O)CN(CCCCCCCCC)CCN(CCCCCCCCC)CCCCCCCCC)CC1` [Compound 90, Pentyl 8-((2-(4-(N-(2-(dinonylamino)ethyl)-N-nonylglycyl)piperazin-1-yl)-2-oxoethyl)(tetradecyl)amino)octanoate], the “EE (%)” value in series [1] was 98.4%. Besides, in series [2], the “AUC (p/s*h) CD-1 mice 0.5 mpk” value turned out to be 2.08E+07 p/s*h. Further, the “% Dose Remaining 24 hr” value in series [3] is 3.93%. The same compound came in with a pKa in series [4] of 6.83. Moreover, in series [5], the “Lipid % change purity in EtOH, 25° C., 96 h” value amounted to 0.1% and the “Lipid % change purity in EtOH, 37° C., 96 h” value worked out at 9.6%. Further, in series [6], the PDI was 0.19 and the “Size (nm)” value stood at 81.5 nm.
Take `CCCCCCCCCCCCCCN(CCCCCC(=O)OCCCCCCC)CC(=O)N1CCN(C(=O)CN(CCCCCCCCC)CCN(CCCCCCCCC)CCCCCCCCC)CC1` [Compound 91, Heptyl 6-((2-(4-(N-(2-(dinonylamino)ethyl)-N-nonylglycyl)piperazin-1-yl)-2-oxoethyl)(tetradecyl)amino)hexanoate]: the “EE (%)” value in series [1] turned out to be 97.6%. The “AUC (p/s*h) CD-1 mice 0.5 mpk” value in series [2] was 3.22E+07 p/s*h. In addition, the “% Dose Remaining 24 hr” value in series [3] worked out at 9.19%. In series [4], this compound displayed a pKa of 6.74. In series [5], the “Lipid % change purity in EtOH, 25° C., 96 h” value amounted to 1% and the “Lipid % change purity in EtOH, 37° C., 96 h” value is reported as 2.3%. In addition, in series [6], the PDI came out at 0.21 and the “Size (nm)” value was 82.9 nm.
Turning to `CCCCCCCCCCCCCCN(CCCOC(=O)CCCCCCCCC)CCC1CCN(C(=O)CN(CCCCCCCCC)CCN(CCCCCCCCC)CCCCCCCCC)CC1` [Compound 92, 3-((2-(1-(N-(2-(Dinonylamino)ethyl)-N-nonylglycyl)piperidin-4-yl)ethyl)(tetradecyl)amino)propyl decanoate], the “EE (%)” value in series [1] is 97.1%. Besides, in series [2], the “AUC (p/s*h) CD-1 mice 0.5 mpk” value was 8.25E+07 p/s*h. Further, the “% Dose Remaining 24 hr” value in series [3] turned out to be 0.10%. Moreover, the pKa in series [4] was determined as 6.53. Also, in series [5], the “Lipid % change purity in EtOH, 25° C., 96 h” value was determined as 4.5% and the “Lipid % change purity in EtOH, 37° C., 96 h” value turned out to be 9%. In series [6], the PDI is listed as 0.17 and the “Size (nm)” value came to 73.8 nm.
In the case of `CCCCCCCCCCCCCCN(CCCCCCCC(=O)OCCCCC)CCC1CCN(C(=O)CN(CCCCCCCCC)CCN(CCCCCCCCC)CCCCCCCCC)CC1` [Compound 93, Pentyl 8-((2-(1-(N-(2-(dinonylamino)ethyl)-N-nonylglycyl)piperidin-4-yl)ethyl)(tetradecyl)amino)octanoate], the “EE (%)” value in series [1] is 97.7%. Moreover, the “AUC (p/s*h) CD-1 mice 0.5 mpk” value in series [2] is listed as 8.63E+07 p/s*h. The “% Dose Remaining 24 hr” value in series [3] is reported as 10.37%. For the same compound, the pKa in series [4] was 6.6. Besides, in series [5], the “Lipid % change purity in EtOH, 25° C., 96 h” value is 0% and the “Lipid % change purity in EtOH, 37° C., 96 h” value is 2.2%. Besides, in series [6], the PDI worked out at 0.17 and the “Size (nm)” value is given as 75.6 nm.
As to `CCCCCCCCCCCCCCN(CCCCCC(=O)OCCCCCCC)CCC1CCN(C(=O)CN(CCCCCCCCC)CCN(CCCCCCCCC)CCCCCCCCC)CC1` [Compound 94, Heptyl 6-((2-(1-(N-(2-(dinonylamino)ethyl)-N-nonylglycyl)piperidin-4-yl)ethyl)(tetradecyl)amino)hexanoate], in series [1], the “EE (%)” value is on record as 98.4%. The “AUC (p/s*h) CD-1 mice 0.5 mpk” value in series [2] was 2.39E+07 p/s*h. In addition, the “% Dose Remaining 24 hr” value in series [3] worked out at 18.52%. Further, the pKa in series [4] turned out to be 6.65. Also, in series [5], the “Lipid % change purity in EtOH, 25° C., 96 h” value turned out to be 5.9% and the “Lipid % change purity in EtOH, 37° C., 96 h” value is on record as 8.3%. For the same compound, in series [6], the PDI amounted to 0.20 and the “Size (nm)” value is given as 74.6 nm.
Turning to `CCCCCCCCCN(CCCCCCCCC)CCN(CCCCCCCCC)CC(=O)N1CCC(CCOC(=O)CN(CCCCCCCCC)CCCCCCCCC)C1` (stereo not drawn) [Compound 103, 2-(1-(N-(2-(Dinonylamino)ethyl)-N-nonylglycyl)pyrrolidin-3-yl)ethyl Dinonylglycinate], in series [1], the “EE (%)” value stood at 99.0%. Also, in series [2], the “AUC (p/s*h) CD-1 mice 0.5 mpk” value turned out to be 1.82E+08 p/s*h. Further, the “% Dose Remaining 24 hr” value in series [3] worked out at 71.45%. In series [4], the pKa is 7.25. Also, in series [5], the “Lipid % change purity in EtOH, 25° C., 96 h” value is reported as 1.5% and the “Lipid % change purity in EtOH, 37° C., 96 h” value turned out to be 5.7%. In series [6], the PDI amounted to 0.17 and the “Size (nm)” value stood at 76.9 nm.
With `CC/C=C\COC(=O)CCCN(CCCCCCCCC)CC(=O)N1CCN(C(=O)CN(CCCCCCCCC)CCN(CCCCCCCCC)CCCCCCCCC)CC1` [Compound 107, (Z)-Pent-2-en-1-yl 4-((2-(4-(N-(2-(dinonylamino)ethyl)-N-nonylglycyl)piperazin-1-yl)-2-oxoethyl)(nonyl)amino)butanoate], the “EE (%)” value in series [1] was 96.6%. For the same compound, the “AUC (p/s*h) CD-1 mice 0.5 mpk” value in series [2] was 1.76E+08 p/s*h. For the same compound, the “% Dose Remaining 24 hr” value in series [3] was determined as 38.15%. The pKa in series [4] was 6.99. Further, in series [5], the “Lipid % change purity in EtOH, 25° C., 96 h” value is given as 4% and the “Lipid % change purity in EtOH, 37° C., 96 h” value turned out to be 3.6%. Further, in series [6], the PDI was 0.19 and the “Size (nm)” value is on record as 80.6 nm.
As for `CCCCCCCCCN(CCCCCCCCC)CCN(CCCCCCCCC)CC(=O)N1CCN(C(=O)CN(CCCCCCCCC)CCCCCOC(=O)OC)CC1` [Compound 109, 5-((2-(4-(N-(2-(Dinonylamino)ethyl)-N-nonylglycyl)piperazin-1-yl)-2-oxoethyl)(nonyl)amino)pentyl methyl carbonate], the “EE (%)” value in series [1] worked out at 95.0%. For the same compound, in series [2], the “AUC (p/s*h) CD-1 mice 0.5 mpk” value is listed as 5.56E+07 p/s*h. The “% Dose Remaining 24 hr” value in series [3] is on record as 0.54%. The compound further displayed a pKa in series [4] of 7.27. Besides, in series [5], the “Lipid % change purity in EtOH, 25° C., 96 h” value is recorded as 0% and the “Lipid % change purity in EtOH, 37° C., 96 h” value worked out at 4.1%. Moreover, in series [6], the PDI was 0.16 and the “Size (nm)” value worked out at 75.0 nm.
As for `CCCCCCCCCN(CCCCCCCCC)CC(=O)N1CCN(C(=O)CN(CCCCCCCCC)CCCCCCCCC)CC1` [Compound 112, 1,1′-(piperazine-1,4-diyl)bis(2-(dinonylamino)ethan-1-one)], the “EE (%)” value in series [1] was 97.1%. Further, the “AUC (p/s*h) CD-1 mice 0.5 mpk” value in series [2] worked out at 1.78E+04 p/s*h. Also, in series [3], the “% Dose Remaining 24 hr” value is recorded as 46.37%. In series [4], this compound registered a pKa of 6.14. Besides, in series [6], the PDI was determined as 0.22 and the “Size (nm)” value came out at 73.5 nm.
For the compound `CCCCCC/C=C\COC(=O)CCCN(CCCCCCCCCCCCCC)CC(=O)N1CCN(C(=O)CN(CCCCCCCCC)CCN(CCCCCCCCC)CCCCCCCCC)CC1` [Compound 118, (Z)-Non-2-en-1-yl 4-((2-(4-(N-(2-(dinonylamino)ethyl)-N-nonylglycyl)piperazin-1-yl)-2-oxoethyl)(tetradecyl)amino)butanoate], the “EE (%)” value in series [1] worked out at 97.8%. In addition, the “AUC (p/s*h) CD-1 mice 0.5 mpk” value in series [2] was determined as 1.64E+08 p/s*h. For the same compound, in series [3], the “% Dose Remaining 24 hr” value worked out at 55.92%. The same compound yielded a pKa in series [4] of 6.7. For the same compound, in series [6], the PDI is on record as 0.20 and the “Size (nm)” value is given as 82.3 nm.
As to `CCCCCCCCCN(CCCCCCCCC)CCN(CCCCCCCCC)CC(=O)OCCOC(=O)CN(CCCCCCCCC)CCCCCCCCC` [Compound 150, 2-((N-(2-(Dinonylamino)ethyl)-N-nonylglycyl)oxy)ethyl dinonylglycinate], the “AUC (p/s*h) CD-1 mice 0.5 mpk” value in series [2] is on record as 2.29E+05 p/s*h. In addition, the “% Dose Remaining 24 hr” value in series [3] came out at 57.89%. Besides, the pKa in series [4] turned out to be 5.10.
